Measurements published in article PMC8401132 (Molecules, 2021).
Where two headings read alike, the source gives them in different places. Each block holds one compound with its values, some of them ahead of it.

Columns and labels:
[1] = test system: K562-200 (K562/Adr200) cells; test: CellTiter-Glo ATP cell viability/proliferation, K562-200; format: cell-based, human; conditions: for IC50: K562-200, ATP release, 72 h
Protocol: (§1) SW1222 were cultured in DMEM (Gibco, New York, NY, USA) media supplemented with 10% fetal bovine serum (FBS) (Gibco, New York, NY, USA) and 1% penicillin/streptomycin (Gibco, USA). Both K562 and K562/Adr200 were cultured in RPMI media (Gibco, New York, NY, USA) supplemented with 10% FBS and 1% penicillin/streptomycin. The seeding density for all the three cell lines was 1000 cells per well in 96 wells plates. […] From this experiment, the effective concentration that inhibited the growth of ≥50% of the cells was determined. […] Both metformin and copper sulfate were prepared in sterile nuclease-free water, then added to the media. The cells were maintained in culture for 72 h before any further assessments were done. […] A control sample of untreated cells was included in all experiments. […] The CellTiter-Glo® luminescent cell viability assay was used to determine levels of ATP release from each cell line after 72 h, according to manufacturer’s instructions.

SW1222 cells [2] = test: CellTiter-Glo ATP cell viability/proliferation, SW1222; format: cell-based, human
Protocol: as §1

K562 cells [3] = test: CellTiter-Glo ATP cell viability/proliferation, K562; format: cell-based, human; conditions: for Normalized ATP percentage / IC50: 72 h; for IC50: Homo sapiens, K562, 72 h, K562, ATP release
Protocol: as §1

K562 cells [4] = test: Actin stress fiber staining, K562; format: cell-based, human; conditions: K562, 72 h
Protocol: (§2) To assess the effects on actin stress fiber organization and cell morphology, rhodamine phalloidin was used. Cells were fixed in 4% paraformaldehyde 72 h post-treatment. Cells were permeabilized for 5 min in prechilled 0.5% Triton × 100, 3 mM MgCl2, and 300 mM sucrose, followed by washing with 1× DPBS. A blocking buffer composed of 5% fetal bovine serum (FBS), 0.1% Tween 20, and 0.02% sodium azide was then added to the cells for 30 min. Rhodamine phalloidin was incubated for one hour after removing and discarding the blocking buffer. Cells were subsequently washed with 1× PBS, and DAPI was added for nucleic acid staining prior to fluorescence imaging.

SW1222 cells [5] = test: Actin stress fiber staining and morphology, SW1222; format: cell-based, human; conditions: SW1222, 15 mM and 50 mM metformin, 72 h
Protocol: as §2

[6] = potentiometry, cited from earlier work
[7] = test system: human gastric cancer AGS cells; conditions: 20 mM for 12 h ref 56; cited from earlier work
K562-200 cells = test: Actin stress fiber staining, K562-200; format: cell-based, human; conditions: K562-200, 72 h
Protocol: as §2

[8] = T2DM / diabetic patients ref 57; cited from earlier work
[9] = test system: embryonic lung HEL 299 cells; conditions: 10–50 mM for 48 h ref 56; cited from earlier work
293 cells = conditions: 10–50 mM for 48 h ref 56; cited from earlier work
[10] = patients with diabetes, observational study published in 2005 ref 13; cited from earlier work
[11] = parameters: method as in PMID 21168988; conditions: NMR, literature data ref 39; cited from earlier work
[12] = potentiometry, cited from earlier work; remark: listed apart in the source
[13] = Cu(II)/metformin complex formation constants by combined potentiometric-Vis titration; format: physicochemical; conditions: 0.1 M KCl, 25.0 °C, [L] = 4 mM, [Cu^2+] = 2 mM, potentiometry/Vis
Protocol: Protonation and complex-formation equilibrium studies were carried out under the same conditions described in previous publications. […]. Combined potentiometric–spectrophotometric measurements were performed for protonation equilibria in the 200–400 nm spectral range and in the 400–800 nm spectral range for copper (II) complexes, using 0.2 and 1 cm path lengths, respectively. Protonation and complex formation data were analyzed using the Hyperquad and HypSpec2014 program.

[14] = test system: normal colon CCD 841 CoN cells; conditions: 10–50 mM for 48 h ref 56; cited from earlier work

Compound: O=S(=O)([O-])[O-].[Cu+2] [Cu(II), copper (II) sulfate]
Inhibition of cell proliferation (% of the cells) ([1]; K562-200, 400 µM Cu(II), absence of metformin): ≥ 50%
Effect on cells ([1]; K562-200, 5 mM Cu(II), regardless of metformin concentration): almost all cells died
Inhibition of cell proliferation (% of the cells) (SW1222 cells [2]; SW1222, 400 µM Cu(II), absence of metformin): ≥ 50%
Effect on cells (SW1222 cells [2]; SW1222, 5 mM Cu(II), regardless of metformin concentration): almost all cells died
Inhibition of cell proliferation (% of the cells) (K562 cells [3]; K562, 400 µM Cu(II), absence of metformin): ≥ 50%
Normalized ATP percentage (K562 cells [3]; K562, 400 µM Cu(II), no metformin): 47.2%
Effect on cells (K562 cells [3]; K562, 5 mM Cu(II), regardless of metformin concentration): almost all cells died

IC50 ([1]; Homo sapiens, K562, 72 h): 63.1 µM
IC50 [1]: 63 µM
IC50 (SW1222 cells [2]; Homo sapiens, SW1222, ATP release, 72 h): 15600 µM
Logβ CuL2 [13]: 22.20(7)
Logβ CuL2H [13]: 28.3(1)
Logβ CuLH [13]: 17.87(5)
IC50 (K562 cells [3]): 851 µM
IC50 (K562 cells [3]; as in Figure 7B legend): ~1000 µM
Compound: CN(C)C(=N)N=C(N)N [metformin, 3-(diaminomethylidene)-1,1-dimethylguanidine]
Lowest concentration showing loss of actin stress fibers (K562 cells [4]): 1 mM
Cell shrinkage and rounding (SW1222 cells [5]): dramatically increased
LogK CuL ([6]; literature data ref 38): 8.59 [38]
LogK CuL2 ([6]; literature data ref 38): 6.35 [38]
LogK CuL ([6]; literature data ref 42): 7.17 [42]
LogK CuL2 ([6]; literature data ref 42): 5.13 [42]
Effect on cell viability [7]: significantly reduced cell viability
Lowest concentration showing loss of actin stress fibers (K562-200 cells): 20 µM
Plasma concentration [8]: ~20 µM
Effect on viability [9]: no significant effect
Effect on viability (293 cells): no significant effect
Decrease in cancer risk with metformin use [10]: 23%
Protonation constant LH [11]: 13.8 [39]
Protonation constant LH2 [11]: 3.1 [39]
Protonation constant LH ([12]; literature data ref 37): 11.02 [37]
Protonation constant LH2 ([12]; literature data ref 37): 2.79 [37]
Protonation constant LH ([12]; literature data ref 38): 11.10 [38]
Protonation constant LH2 ([12]; literature data ref 38): 2.90 [38]
Normalized ATP percentage (K562 cells [3]; K562, 10 mM metformin): 35.2%
Effect on viability [14]: no significant effect
